Measured values as given in publication PMC10249021 (Journal of the American Chemical Society, 2020).

Assay: Thermal stability of oxytocin and analogues at 50 °C by LCMS analysis
Type: physicochemical
Conditions: thermal degradation in water at 50 °C; read-out LCMS analysis

CC[C@H](C)[C@@H]1NC(=O)[C@H](Cc2ccc(O)cc2)NC(=O)[C@@H](N)CSSC[C@@H](C(=O)N2CCC[C@H]2C(=O)N[C@@H](CC(C)C)C(=O)NCC(N)=O)NC(=O)[C@H](CC(N)=O)NC(=O)[C@H](CCC(N)=O)NC1=O [oxytocin]
half-life (thermal stability): 93.6 h
